Assay results from patent publication EP3444615A1, “METHODS AND COMPOSITIONS FOR DIAGNOSTIC EVALUATION AND THERAPEUTIC CORRECTION OF THE NO-HAEM SIGNALLING PATHWAY(S) IN ANIMALS AND HUMANS” (Freiberg Instruments GmbH, priority 2017, dated 2019).

Columns and labels:
isolated sGC = molecular target: T1, isolated sGC (Bos taurus, UniProt P16068); settings: bare ferrohaem, in contrast to NO-ferrohaem; cited from earlier work
T1 construct: host or cells: bovine lung (from a cited title)
T1 sequence (P16068 1-619): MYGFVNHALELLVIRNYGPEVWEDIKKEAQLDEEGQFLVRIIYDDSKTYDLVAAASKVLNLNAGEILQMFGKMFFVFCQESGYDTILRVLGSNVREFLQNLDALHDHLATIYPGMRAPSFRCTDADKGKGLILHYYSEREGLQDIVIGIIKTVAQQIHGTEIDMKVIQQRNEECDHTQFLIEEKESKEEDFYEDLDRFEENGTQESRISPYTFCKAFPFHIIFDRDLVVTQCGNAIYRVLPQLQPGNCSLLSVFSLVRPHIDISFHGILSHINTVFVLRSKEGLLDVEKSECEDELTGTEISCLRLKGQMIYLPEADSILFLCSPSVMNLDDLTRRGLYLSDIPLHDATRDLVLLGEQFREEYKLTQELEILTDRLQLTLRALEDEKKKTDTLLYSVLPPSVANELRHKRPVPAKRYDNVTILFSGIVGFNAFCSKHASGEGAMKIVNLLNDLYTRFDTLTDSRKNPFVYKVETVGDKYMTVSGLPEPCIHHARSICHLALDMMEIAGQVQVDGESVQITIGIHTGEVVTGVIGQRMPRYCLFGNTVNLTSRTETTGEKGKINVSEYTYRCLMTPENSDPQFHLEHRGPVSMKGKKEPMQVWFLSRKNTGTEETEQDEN
T1 sequence (P19687 1-691 partner): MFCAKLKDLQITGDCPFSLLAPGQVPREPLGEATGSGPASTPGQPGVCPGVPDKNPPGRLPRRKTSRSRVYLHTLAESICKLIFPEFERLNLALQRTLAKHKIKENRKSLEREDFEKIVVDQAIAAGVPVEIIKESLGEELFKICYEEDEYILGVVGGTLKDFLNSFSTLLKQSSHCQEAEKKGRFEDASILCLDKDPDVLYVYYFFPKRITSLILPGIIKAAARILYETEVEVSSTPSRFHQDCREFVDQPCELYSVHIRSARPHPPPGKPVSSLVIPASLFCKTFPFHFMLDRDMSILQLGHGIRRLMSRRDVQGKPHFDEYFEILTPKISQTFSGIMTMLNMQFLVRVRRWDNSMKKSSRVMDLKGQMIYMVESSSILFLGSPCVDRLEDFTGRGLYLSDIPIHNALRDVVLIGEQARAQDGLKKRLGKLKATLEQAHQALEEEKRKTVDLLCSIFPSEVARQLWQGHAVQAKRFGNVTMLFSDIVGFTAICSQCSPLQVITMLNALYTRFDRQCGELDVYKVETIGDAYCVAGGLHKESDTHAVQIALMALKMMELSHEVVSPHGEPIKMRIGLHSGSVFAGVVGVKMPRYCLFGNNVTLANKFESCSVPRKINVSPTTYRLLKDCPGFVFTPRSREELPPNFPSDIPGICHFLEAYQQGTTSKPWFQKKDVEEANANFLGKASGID

[1] = system: human platelet-rich plasma (PRP); assay: U46619-induced platelet aggregation in platelet-rich plasma (aggregometer); format: cell-based
Method: Human venous blood was collected into a plastic polypropylene syringe containing sodium citrate. […] Platelet-rich-plasma (PRP) was prepared by centrifugation of the blood at 180g for 10 minutes at room temperature. The cloudy supernatant containing platelets was carefully removed with a pipette and transferred into a clean polypropylene tube and capped. Platelets were used for the experiments within 3 hr after blood collection. Platelet function studies were performed using a Dual Channel Aggregometer (Chronolog, Havertown). The PRP was adjusted to a platelet count of 200-300x 10^6/ml. Platelet aggregation was induced by the addition of a synthetic thromboxane A2 receptor agonist, U46619 (Cayman Chemical, Ann Arbor). PRP was placed in the aggregometer cuvette and continuously stirred at the rate of 1000 rpm. Platelet aggregation was determined by measuring the change in the optical density after addition of 1µM U46619. […]

mouse femoral artery = assay: isometric tension study, wire myograph, pre-contracted artery rings; settings: Fig. 7
Method: For the pilot experiment a male Swiss mouse (35 g) was sacrificed under ether anaesthesia. Femoral artery was isolated and cleaned from the adhering fat and connective tissue. Artery rings (2 mm) with endothelium were mounted in the organ chambers filled with Krebs solution continuously bubbled with 95% 02/ 5% CO2 at 37°C. The composition of the solution was as following: 119 mM NaCl, 4.7 mM KCI, 14.9 mM NaHCO3, 1.2 mM MgSO4.7H2O, 2.5 mM CaCl2, 1.18 mM KH2PO4, and 5.5 mM glucose; pH 7.4. Vascular reactivity was measured by the monitoring the changes in isometric tension using a wire myograph (Danish Myo Technology, Arhus, Denmark). After pre-contraction of arterial rings with 1µM 5-HT (serotonin; Sigma-Aldrich), the cumulative concentrations of NO-ferrohaem were added. In the end of experiment, an inhibitor of the soluble guanylate cyclase (ODQ; 1µM) was added.

anesthetized Wistar rat = assay: blood pressure study, subcutaneous injection; format: in vivo; settings: after injection of sGC inhibitor methylene blue; Fig. 8
Method: For the pilot experiment, a male Wistar rat weighing 350g from Janvier Labs (Le Genest-Saint-Isle, France) was used. Rat was anaesthetised with isoflurane 1-2% (Baxter S.A.S, Maurepas, France) and analgesia was ensured by sufentanil (Mylan, Pittsburgh PA, USA) (0.1 µg/kg of body weight) administered subcutaneously. Animal was tracheotomised and lungs ventilated throughout the experiment. The ventilator (Harvard Rodent Ventilator 683, Harvard Instruments, South Natick, MA, USA) was set to maintain a PaCO2 of 40 mmHg and oxygen was added to maintain a PaO2 of 100 mmHg. The left femoral artery was used to measure mean arterial pressure (MAP) and heart rate (HR). The rectal temperature was continuously monitored. The NO-ferrohaem was injected at dose 2µmol/kg (s.c.) before and after the injection of methylene blue (1 µmol/kg; s.c.). In the end of experiment rat was euthanized using the lethal dose of Pentothal (100 mg/kg; i.v.).

anesthetized rats = assay: blood pressure after intravenous bolus injection; format: in vivo; settings: 10 nmol/kg
[2] = system: isolated rat mesenteric arteries; assay: vasodilation in isolated mesenteric arteries

## C=Cc1c(C)c2[n]3c1C=C1N=C(C=C4N=C(C=c5c(C)c(C=C)c([n]5[Fe]3)=C2)C(C)=C4CCC(=O)O)C(CCC(=O)O)=C1C [ferrohaem]
Isolated sGC
  effect on basal activity of isolated sGC: inhibits the basal activity of isolated sGC

## C=Cc1c(C)c2[n]3c1C=C1N=C(C=C4N=C(C=c5c(C)c(C=C)c([n]5[Fe]3[N]=O)=C2)C(C)=C4CCC(=O)O)C(CCC(=O)O)=C1C [NO-ferrohaem, nitrosylated ferrous protoporphyrin IX]
[1]; 1 nM, 10nM or 100nM added 30 seconds before 1µM U46619, Fig. 6
  U46619-induced platelet aggregation: concentration-dependently prevented the aggregation
[1]; at low nM concentrations, human platelet-rich plasma
  inhibition of thromboxane-induced platelet aggregation: efficiently inhibits
Mouse femoral artery; 5-HT (1µM)-pre-contracted, 100nM-100µM concentration range
  relaxation of pre-contracted arteries: concentration-dependent relaxation
Mouse femoral artery; plus sGC inhibitor ODQ (1µM)
  effect of ODQ on the NO-ferrohaem-induced relaxation: completely reversed
Anesthetized Wistar rat
  effect of methylene blue on hypotensive activity: prevented this NO-ferrohaem activity
Anesthetized rats
  blood pressure effect: sGC-inhibitor-sensitive hypotension
[2]
  vasodilating activity: direct long-lasting vasodilating activity
